Data from patent US9045429B2, “Substituted phenoxypyridines” (Bayer Intellectual Property GmbH, priority 2010, dated 2015).
pIC50: −log10 of the molar value.

What was measured:
A549 cells = assay: A549 Cell Titer Glo (CTG) Proliferation Assay [Assay 2]; assay type: cell-based; settings: A549 human non small cell lung cancer cells (K-Ras G12S), 72 hours incubation
Description: (§1) HCT116 cells [human colorectal cell line, expressing mutant […]] were plated at a density of 3000 cells/well in 96 well black-clear bottom tissue culture plates (Costar 3603 black/clear bottom) in 100 μl/well DMEM medium (DMEM/Ham's F12) with 10% Fetal Bovine Serum (FBS) and stable Glutamine incubated at 37° C. Sister wells were plated in separate plate for time zero determination. All plates were incubated overnight at 37° C. Take down time zero plate: 100 μl/well CTG solution (Promega Cell Titer Glo solution) were added to time zero wells in sister plate; the plates were mixed for 2 min on orbital shaker to ensure cell lysis, incubated for 10 minutes, luminescence was read on VICTOR 3 (Perkin Elmer). Twenty-four hours after cell seeding, test compounds were diluted in 50 μl medium and were added at a final concentration range from as high 10 μM to as low 300 pM depending on the activities of the tested compounds in serial dilutions at a final DMSO concentration of 0.4%. Cells were incubated for 72 hours at 37° C. after addition of the test compound. Then, using a Promega Cell Titer Glo Luminescent® assay kit, 100 μl microliter lysis buffer containing of the enzyme luciferase and its substrate, luciferin mixture, were added to each well and incubated for 10 min at room temperature in the dark to stabilize luminescence signal. The samples were read on VICTOR 3 (Perkin Elmer) using Luminescence protocol. The percentage change in cell growth was calculated by normalizing the measurements to the extinctions of the zero point plate (=0%) and the extinction of the untreated (0 μM) cells (=100%). The IC50 values were determined by means of a 4-parameter fit using the company's own software.
Assay 2: A549 Cell Titer Glo (CTG) Proliferation Assay:
A549 cells [human non small cell lung cancer cell line, expressing mutant K-Ras G12S] were seeded at a density of 2000 cells/well in 96 well black-clear bottom tissue culture plates (Costar 3603 black/clear bottom) in 100 μl/well DMEM medium (DMEM/Ham's F12) with 10% Fetal Bovine Serum (FBS) and stable Glutamine incubated at 37° C. Cell Titer Glo proliferation assays for A549 cells were performed with the same protocol as described afore for HCT116 cells.

A375 cells = assay: A375 Crystal Violet (CV) Proliferation Assay [Assay 5]; assay type: cell-based; settings: A-375, 96 h; A375 human melanoma cells (BRAF V600E), crystal violet staining, 4 days incubation
Description: Assay 5: A375 Crystal Violet (CV) Proliferation Assay:
Cell proliferation for A375 cells [human melanoma cell line, expressing mutant BRAF V600E] was measured by crystal violet (CV) staining: Cultivated human A375 cells were plated out in a density of 1500 cells/measurement point in 200 μl of growth medium (DMEM/HAMS F12 with 10% FBS and 2 mM Glutamine) in a 96-well multititer plate. After 24 hours, the cells from a plate (zero plate) were stained with crystal violet (see below), while the medium in the other plates was replaced by fresh culture medium (200 μl) to which the test substances had been added in various concentrations (0 μM, and in the range 0.3 nM-30 μM; the final concentration of the solvent dimethyl sulphoxide was 0.5%). The cells were incubated in the presence of the test substances for 4 days. The cell proliferation was determined by staining the cells with crystal violet: the cells were fixed by adding 20 μl/measurement point of an 11% glutaraldehyde solution at room temperature for 15 min. After the fixed cells had been washed three times with water, the plates were dried at room temperature. The cells were stained by adding 100 μl/measurement point of a 0.1% crystal violet solution (pH adjusted to pH 3 by adding acetic acid). After the stained cells had been washed three times with water, the plates were dried at room temperature. The dye was dissolved by adding 100 μl/measurement point of a 10% acetic acid solution, and the extinction was determined by photometry at a wavelength of 595 nm. The percentage change in cell growth was calculated by normalizing the measurements to the extinctions of the zero point plate (=0%) and the extinction of the untreated (0 μM) cells (=100%). The IC50 values were determined by means of a 4-parameter fit using the company's own software.

HCT116 cells = assay: HCT116 Cell Titer Glo (CTG) Proliferation Assay [Assay 1]; assay type: cell-based; settings: HCT-116, HCT116 human colorectal cells, 72 hours incubation
Source text: Cell Titer Glo Proliferation Assay
The adherent tumor cell proliferation assay used to test the compounds of the present invention involves a readout called Cell Titre-Glo developed by Promega (Cunningham, BA “A Growing Issue: Cell Proliferation Assays. Modern kits ease quantification of cell growth” The Scientist 2001, 15(13), 26, and Crouch, S P et al., “The use of ATP bioluminescence as a measure of cell proliferation and cytotoxicity” Journal of Immunological Methods 1993, 160, 8 1-88).
Assay 1: HCT116 Cell Titer Glo (CTG) Proliferation Assay:
as §1

colon cancer = settings: oral treatment, mouse models, literature [18]; cited from earlier work
MEK1/2 = MEK1/2 inhibitor, literature [17]; cited from earlier work

SMILES | pIC50 (A549 cells) | pIC50 (A375 cells) | pIC50 (HCT116 cells) | colon cancer growth in vivo (colon cancer) | IC50 (MEK1/2)
NC(=O)c1c(Nc2ccc(I)cc2F)cncc1Oc1ccc2oc(=O)[nH]c2c1 [Example 1, 3-[(2-fluoro-4-iodophenyl)amino]-5-[(2-oxo-2,3-dihydro-1,3-benzoxazol-5-yl)oxy]isonicotinamide] | 7.23 | 8.64 | 7.35 |  | 
NC(=O)c1c(Nc2ccc(I)cc2F)cncc1Oc1cccc(N)c1 [Example 3, 3-(3-aminophenoxy)-5-[(2-fluoro-4-iodophenyl)amino]isonicotinamide] | 6.42 | 9.17 | 6.67 |  | 
CC(C)S(=O)(=O)Nc1cccc(Oc2cncc(Nc3ccc(I)cc3F)c2C(N)=O)c1 [Example 4, 3-[(2-fluoro-4-iodophenyl)amino]-5-{3[(isopropylsulfonyl)amino]phenoxy}isonicotinamide] | 7.84 | 9.39 | 7.95 |  | 
CS(=O)(=O)Nc1cccc(Oc2cncc(Nc3ccc(I)cc3F)c2C(N)=O)c1 [Example 5, 3-[(2-fluoro-4-iodophenyl)amino]-5-{3-[(methylsulfonyl)amino]phenoxy}isonicotinamide] | 7.64 | 9.11 | 7.73 |  | 
CCS(=O)(=O)Nc1cccc(Oc2cncc(Nc3ccc(I)cc3F)c2C(N)=O)c1 [Example 6, 3-{3-[(ethylsulfonyl)amino]phenoxy}-5-[(2-fluoro-4-iodophenyl)amino]isonicotinamide] | 7.83 | 7.82 | 7.96 |  | 
NC(=O)c1c(Nc2ccc(I)cc2F)cncc1Oc1cccc(NS(=O)(=O)C2CC2)c1 [Example 7, 3-{3-[(cyclopropylsulfonyl)amino]phenoxy}-5-[(2-fluoro-4-iodophenyl)amino]isonicotinamide] | 7.77 | 7.82 | 8.01 |  | 
CC(=O)Nc1cccc(Oc2cncc(Nc3ccc(I)cc3F)c2C(N)=O)c1 [Example 8, 3-(3-acetamidophenoxy)-5-[(2-fluoro-4-iodophenyl)amino]isonicotinamide] | 6.47 | 8.31 | 6.71 |  | 
CCC(=O)Nc1cccc(Oc2cncc(Nc3ccc(I)cc3F)c2C(N)=O)c1 [Example 9, 3-[(2-fluoro-4-iodophenyl)amino]-5-[3-(propionylamino)phenoxy]isonicotinamide] | 6.05 | 8.06 | 6.36 |  | 
CC(C)C(=O)Nc1cccc(Oc2cncc(Nc3ccc(I)cc3F)c2C(N)=O)c1 [Example 10, 3-[(2-fluoro-4-iodophenyl)amino]-5-[3-(isobutyrylamino)phenoxy]isonicotinamide] | 5.78 | 7.67 | 5.95 |  | 
CC(C)(O)C(O)CCOc1cncc(Nc2ccc(I)cc2F)c1C(N)=O (stereo not shown) [Example 12, 3-[(3,4-dihydroxy-4-methylpentyl)oxy]-5-[(2-fluoro-4-iodophenyl)amino]isonicotinamide] |  | 7.48 |  |  | 
C#Cc1ccc(Nc2cncc(Oc3cccc(NS(=O)(=O)CC)c3)c2C(N)=O)c(F)c1 [Example 14, 3-{3-[(ethylsulfonyl)amino]phenoxy}-5-[(4-ethynyl-2-fluorophenyl)amino]isonicotinamide] | 7.30 | 8.90 | 7.47 |  | 
COc1cncc(Nc2ccc(I)cc2F)c1C(N)=O [Example 15, 3-[(2-fluoro-4-iodophenyl)amino]-5-methoxyisonicotinamide] |  | 6.93 |  |  | 
O=C(NOCC1CC1)c1ccc(F)c(F)c1Nc1ccc(I)cc1Cl [PD184352] |  |  |  | inhibit colon cancer growth | low nanomolar range
